The numbers were not newly measured in US20120015404A1, “GENE CLUSTER FOR THU[…]” (HUAZHONG AGRICULTURAL UNIVERSITY, priority 2009, published 2012), which cites them from elsewhere.

Structures are written as SMILES.

For one data set, the system named is Anastrepha ludens. As to conditions: third stage larvae.
The test system of another data set is A. obliqua. As to conditions: third stage larvae.
Data set [1] concerns larvae of Galleria mellonella.
A further data set deals with A. serpentine. The settings on record: third stage larvae.
Another data set has as its system larvae of housefly. As to conditions: larvae of housefly take in thuringiensin.
For data set [2] the following is noted: purified thuringiensin.
The mark [3] stands for this setting: low concentration, Helicoverpa armigera.

Take `Nc1ncnc2c1ncn2[C@@H]1O[C@H](CO[C@H]2[C@H](O)[C@@H](O)[C@@H](O[C@@H](C(=O)O)[C@H](O)[C@H](OP(=O)(O)O)[C@H](O)C(=O)O)O[C@@H]2CO)[C@@H](O)[C@H]1O` [thuringiensin A]: in the data set with Helicoverpa armigera (setting [3]), the acute lethal effect result is “no acute lethal effect”; the “effect on growth and development” value was “unrecoverable inhibiting effect”. Further, in the data set on Helicoverpa armigera (lowest testing concentration, 12 days), the “weight of the neonate larvae” value is on record as “no apparent increase”.
`Nc1ncnc2c1ncn2[C@@H]1O[C@H](CO[C@H]2[C@H](O)[C@@H](O)[C@@H](O[C@@H](C(=O)O)[C@H](O)[C@H](OP(=O)(O)O)[C@H](O)C(=O)O)O[C@@H]2CO)[C@@H](O)[C@H]1O` [thuringiensin]: the LC50 is 0.641 μg/cm^2 with Anastrepha ludens, 0.512 μg/cm^2 in the data set on A. obliqua and 0.408 μg/cm^2 with A. serpentine. The “activity compared with E605” value in the data set on Phaedon cochleariae, with Pieris brassicae and in the data set on Plutella maculipennis was “more than E605” in each case. Besides, the “toxicity relative to DDT” value in [1] (injected larvae of Galleria mellonella, times of that of DDT) is 1000 times. The half lethal dose is 0.005 µg/g in data set [1] (larvae of Galleria mellonella, injected) and 0.5 µg/mL with larvae of housefly. In addition, the “toxicity compared with E605” value in the data set with Aedes aegypti was “less than E605”. Also, in data set [2], the mutagenicity result was “no mutagenicity”.
